Reference: ChEMBL document CHEMBL5120768, “Discovery of Anticancer Agents of Diverse Natural Origin” (J Nat Prod, 2022)
Blank lines part the entries; values can stand above or below the molecule they belong to.

What was measured:
MCF7 [1] = experiment: Antiproliferative activity against human MCF7 cells; format: functional, cell-based
A2780 [2] = experiment: Antiproliferative activity against human A2780 cells; format: functional, cell-based
MDA-MB-435 [3] = experiment: Antiproliferative activity against human MDA-MB-435 cells; format: functional, cell-based
MDA-MB-231 [4] = experiment: Antiproliferative activity against human MDA-MB-231 cells; format: functional, cell-based
[5] = Antiproliferative activity against human CCD-112CoN cells after 72 hrs by SRB assay; format: functional, cell-based
A2780 [6] = experiment: Antiproliferative activity against human A2780 cells by SRB assay; format: functional, cell-based
MCF7 [7] = experiment: Antiproliferative activity against human MCF7 cells by SRB assay; format: functional, cell-based
[8] = Antiproliferative activity against human PC-3 cells after 3 days by SRB assay; format: functional, cell-based
HT-29 [9] = experiment: Antiproliferative activity against human HT-29 cells after 3 days by SRB assay; format: functional, cell-based; settings: HT-29, 72 h
HT-29 [10] = experiment: Antiproliferative activity against human HT-29 cells after 72 hrs by CellTiter 96 AQueous One Solution Cell Proliferation assay; format: functional, cell-based; settings: HT-29, 72 h
MDA-MB-435 [11] = experiment: Antiproliferative activity against human MDA-MB-435 cells after 72 hrs by CellTiter 96 AQueous One Solution Cell Proliferation assay; format: functional, cell-based; settings: MDA-MB-435, 72 h
OVCAR-3 = experiment: Antiproliferative activity against human OVCAR-3 cells after 72 hrs by CellTiter 96 AQueous One Solution Cell Proliferation assay; format: functional, cell-based; settings: OVCAR-3, 72 h
MDA-MB-231 [12] = experiment: Antiproliferative activity against human MDA-MB-231 cells after 72 hrs by CellTiter 96 AQueous One Solution Cell Proliferation assay; format: functional, cell-based; settings: MDA-MB-231, 72 h
20S proteasome = experiment: Inhibition of chymotrypsin-like activity of human erythrocytes 20S proteasome using Suc-LLVY-AMC as substrate and measured by fluorescence assay

SMILES: CC(=O)C1=C(O)C=C2Oc3c(C(C)=O)c(O)c(C)c(O)c3C2(C)C1=O (stereo not drawn)
IC50 (MCF7 [1]): 6.8 µM | IC50 (A2780 [2]): 3.8 µM

SMILES: C[C@H]1O[C@@H](O[C@H]2CC[C@]3(C)[C@H]4CC[C@]5(C)[C@@H](C6=CC(=O)OC6)CC[C@]5(O)[C@@H]4CC[C@]3(O)C2)C[C@H](O)[C@@H]1O[C@@H]1O[C@H](CO)[C@@H](O)[C@H](O)[C@H]1O
IC50 [5]: 2.7 µM

SMILES: COc1cc(=O)oc(/C=C/C=C/C=C/C(C)=C/[C@]2(C)O[C@H](C)[C@](C)(O)[C@@H]2O)c1C
IC50 (A2780 [6]): 8.2 µM | IC50 (MCF7 [7]): 6 µM

SMILES: COc1ccc([C@@]23Oc4cc5c(c(OC)c4[C@]2(O)[C@H](O)[C@H](C(N)=O)[C@H]3c2ccccc2)[C@H]2OC[C@H]([C@H](O)CO)O[C@H]2O5)cc1
IC50 [8]: > 10 µM | IC50 (HT-29 [9]): > 10 µM

SMILES: CO[C@H]1[C@H](O[C@H]2CC[C@]3(C=O)[C@H]4CC[C@]5(C)[C@](O)(C6=CC(=O)OC6)CC[C@]5(O)[C@@H]4CC[C@]3(O)C2)O[C@H](C)[C@H](O)[C@@H]1OC
IC50 (HT-29 [10]): > 10 µM | IC50 (MDA-MB-435 [11]): > 10 µM | IC50 (OVCAR-3): > 10 µM

SMILES: CCCCC(Cl)CCCC[C@H](C)[C@@H](O[C@@H]1OC[C@@H](O)[C@@H](O)[C@H]1O)c1cc(O)c([C@@H](CCCC)CCCC[C@H](O)[C@@H](OC(C)=O)c2cc(O)cc(O)c2)c(O)c1 (stereo partly drawn)
IC50 (MDA-MB-435 [3]): > 25 µM | IC50 (MDA-MB-231 [4]): > 25 µM

SMILES: CC[C@H](C)[C@@H]1NC(=O)[C@@H](CCC(N)=O)NC(=O)CNC(=O)[C@H](Cc2ccc(O)cc2)/N=C\[C@H](CC(C)C)NC(=O)[C@H](C(C)C)NC(=O)[C@H](CO)NC1=O
IC50 (20S proteasome): 0.096 µM

SMILES: COc1ccc([C@@]23Oc4cc(OC)cc(OC)c4[C@]2(O)[C@H](O)[C@H](C(N)=O)[C@H]3c2ccccc2)cc1 [DIDESMETHYLROCAGLAMIDE]
IC50 (HT-29 [9]): 0.021 µM

The next lines start with the values.

IC50 (MDA-MB-435 [3]): 0.6 µM | IC50 (MDA-MB-231 [4]): 0.6 µM
SMILES: CCCC[C@H]1CCCC[C@H](C)[C@@H](O)c2cc(O)c(c(O)c2)[C@@H](CCCC)CCCC[C@H](C)[C@@H](O[C@@H]2OC[C@@H](O)[C@@H](O)[C@H]2O)c2cc(O)c1c(O)c2

IC50 (MDA-MB-435 [3]): 0.6 µM | IC50 (MDA-MB-231 [4]): 0.6 µM
SMILES: CCCC[C@H]1CCCC[C@H](C)Cc2cc(O)c(c(O)c2)[C@@H](CCCC)CCCC[C@H](C)[C@@H](O[C@@H]2OC[C@@H](O)[C@@H](O)[C@H]2O)c2cc(O)c1c(O)c2

IC50 (MDA-MB-435 [3]): 0.6 µM | IC50 (MDA-MB-231 [4]): 0.6 µM
SMILES: CCCC[C@H]1CCCC[C@H](C)[C@@H](O[C@H]2OC[C@@H](O)[C@@H](O)[C@H]2O)c2cc(O)c(c(O)c2)[C@@H](CCCC)CCCC[C@H](C)[C@@H](O[C@@H]2OC[C@@H](O)[C@@H](O)[C@H]2O)c2cc(O)c1c(O)c2

IC50 (MDA-MB-231 [12]): 1 µM
SMILES: C[C@@H]1CCCCC[C@H](CCCCO)c2c(O)cc(cc2O)[C@H](C)CCCCC[C@H](CCCO)c2c(O)cc1cc2O

IC50 (MDA-MB-231 [12]): 1 µM
SMILES: CCCC[C@H]1CCCCC[C@@H](C)c2cc(O)c(c(O)c2)[C@@H](CCC)CCCCC[C@@H](C)c2cc(O)c1c(O)c2

IC50 (MDA-MB-231 [12]): 1 µM
SMILES: CCC[C@H]1CCCCC[C@@H](C)c2cc(O)c(c(O)c2)[C@@H](CCCCO)CCCCC[C@@H](C)c2cc(O)c1c(O)c2
